Assay results as given in patent US10758534B2 (Vertex Pharmaceuticals Incorporated, priority 2014, dated 2020).

Molecular target: T1, F508del (Homo sapiens, UniProt P13569, DEL508-508)
T1 construct: expressed in transfected cells
Test: Protocol 1: membrane potential optical assay (FLIPR III, voltage sensing dye), identification of potentiator compounds
Format: cell-based
Details: Table 3, compounds of Table 1
Summary of the method: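 Mouse NIH 3T3 fibroblasts stably expressing F508del, temperature-corrected at 27 °C for 24 h, pretreated with compound, then loaded with voltage-sensing redistribution dye. Forskolin was added in a single step with a chloride gradient (chloride-free gluconate bath; Bath Solution #1 HEPES pH 7.4). Membrane-potential fluorescence read on FLIPR III.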

T1 sequence (P13569 with tags, fused parts or gaps DEL508-508): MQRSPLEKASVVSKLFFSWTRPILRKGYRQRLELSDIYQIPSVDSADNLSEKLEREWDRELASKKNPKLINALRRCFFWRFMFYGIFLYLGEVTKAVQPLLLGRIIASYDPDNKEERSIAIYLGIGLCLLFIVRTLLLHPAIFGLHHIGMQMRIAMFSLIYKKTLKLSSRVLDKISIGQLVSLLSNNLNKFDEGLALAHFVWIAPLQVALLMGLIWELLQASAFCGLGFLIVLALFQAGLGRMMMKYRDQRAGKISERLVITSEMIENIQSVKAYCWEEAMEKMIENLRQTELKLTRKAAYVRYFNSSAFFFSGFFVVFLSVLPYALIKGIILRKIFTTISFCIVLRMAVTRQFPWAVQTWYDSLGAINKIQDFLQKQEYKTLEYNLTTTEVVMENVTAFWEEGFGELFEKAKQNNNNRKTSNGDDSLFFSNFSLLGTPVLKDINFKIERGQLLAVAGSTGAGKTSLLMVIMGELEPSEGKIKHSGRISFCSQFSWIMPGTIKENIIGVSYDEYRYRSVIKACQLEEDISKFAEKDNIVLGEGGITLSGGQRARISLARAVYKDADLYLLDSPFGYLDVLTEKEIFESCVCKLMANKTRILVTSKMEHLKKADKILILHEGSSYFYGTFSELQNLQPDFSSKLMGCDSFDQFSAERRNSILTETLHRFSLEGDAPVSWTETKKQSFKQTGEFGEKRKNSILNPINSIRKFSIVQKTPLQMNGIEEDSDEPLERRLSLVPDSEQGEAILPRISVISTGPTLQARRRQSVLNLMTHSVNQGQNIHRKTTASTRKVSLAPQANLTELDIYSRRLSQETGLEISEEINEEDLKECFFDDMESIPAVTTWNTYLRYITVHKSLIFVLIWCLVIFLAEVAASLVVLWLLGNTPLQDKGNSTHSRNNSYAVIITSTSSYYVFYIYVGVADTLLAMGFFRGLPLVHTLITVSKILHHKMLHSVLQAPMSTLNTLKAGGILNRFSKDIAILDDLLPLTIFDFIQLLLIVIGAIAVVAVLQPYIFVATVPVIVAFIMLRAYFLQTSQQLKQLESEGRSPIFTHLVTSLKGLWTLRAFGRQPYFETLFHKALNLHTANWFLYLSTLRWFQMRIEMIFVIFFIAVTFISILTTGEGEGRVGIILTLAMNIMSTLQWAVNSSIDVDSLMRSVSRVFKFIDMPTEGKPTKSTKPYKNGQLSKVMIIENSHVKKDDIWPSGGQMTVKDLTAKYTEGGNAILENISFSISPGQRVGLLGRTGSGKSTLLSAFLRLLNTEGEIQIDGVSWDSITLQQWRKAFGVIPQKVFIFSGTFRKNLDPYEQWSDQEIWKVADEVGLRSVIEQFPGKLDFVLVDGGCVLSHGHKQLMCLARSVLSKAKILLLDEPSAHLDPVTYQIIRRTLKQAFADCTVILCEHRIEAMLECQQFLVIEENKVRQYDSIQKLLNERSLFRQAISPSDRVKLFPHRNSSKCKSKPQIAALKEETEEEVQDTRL

For `CC(C)COc1cc(F)cc(-c2ccc(C(=O)NS(=O)(=O)N3CCC[C@@H](N)C3)c(N3C[C@@H](C)CC3(C)C)n2)c1` [Compound 1614, N—[[(3R)-3-amino-1-piperidyl]sulfonyl]-6-(3-fluoro-5-isobutoxy-phenyl)-2-[(4S)-2,2,4-trimethylpyrrolidin-1-yl]pyridine-3-carboxamide], the EC30 was “+++ (“+++” means <3 uM)”.
`CC(=O)C1CC=C(c2ccc(C(=O)NS(=O)(=O)c3cccc(N)n3)c(Oc3c(C)cc(C)cc3C)n2)CC1` (stereo not drawn) [Compound 1615, 6-(4-acetylcyclohexen-1-yl)-N-[(6-amino-2-pyridyl)sulfonyl]-2-(2,4,6-trimethylphenoxy)pyridine-3-carboxamide] was tested, and the EC30 was “+++ (“+++” means <3 uM)”.
For `CCOc1cccc2c1CN(Cc1c(C)cc(C)cc1C)C2(C)C(=O)NS(=O)(=O)c1cccc(NC(=O)C(F)(F)F)n1` (stereo not drawn) [Compound 1616, 4-ethoxy-1-methyl-N-[[6-[(2,2,2-trifluoroacetyl)amino]-2-pyridyl]sulfonyl]-2-[(2,4,6-trimethylphenyl)methyl]isoindoline-1-carboxamide], the EC30 was “+++ (“+++” means <3 uM)”.
For `CCC/C=C/c1cc(C(=O)NS(=O)(=O)c2cccc(N)n2)c(N2C[C@@H](C)CC2(C)C)nc1C(C)(C)C` [Compound 1617, N-[(6-amino-2-pyridyl)sulfonyl]-6-tert-butyl-5-[(E)-pent-1-enyl]-2-[(4S)-2,2,4-trimethylpyrrolidin-1-yl]pyridine-3-carboxamide], the EC30 was “+++ (“+++” means <3 uM)”.
For `CC(C)COc1cc(-c2ccc(C(=O)NS(=O)(=O)c3cccc(N)n3)c(N3C[C@@H](C)CC3(C)C)n2)ccn1` [Compound 1618, N-[(6-amino-2-pyridyl)sulfonyl]-6-(2-isobutoxy-4-pyridyl)-2-[(4S)-2,2,4-trimethylpyrrolidin-1-yl]pyridine-3-carboxamide], the EC30 was “+++ (“+++” means <3 uM)”.
In the case of `CC(C)COc1cc(F)cc(-c2ccc(C(=O)NS(=O)(=O)N3CCCC3)c(N3C[C@@H](C)CC3(C)C)n2)c1` [Compound 1619, 6-(3-fluoro-5-isobutoxy-phenyl)-N-pyrrolidin-1-ylsulfonyl-2-[(4S)-2,2,4-trimethylpyrrolidin-1-yl]pyridine-3-carboxamide], the EC30 is reported as “+++ (“+++” means <3 uM)”.
In the case of `CC(C)COc1ccn(-c2ccc(C(=O)NS(=O)(=O)c3cccc(N)n3)c(N3C[C@@H](C)CC3(C)C)n2)n1` [Compound 1620, N-[(6-amino-2-pyridyl)sulfonyl]-6-(3-isobutoxypyrazol-1-yl)-2-[(4S)-2,2,4-trimethylpyrrolidin-1-yl]pyridine-3-carboxamide], the EC30 is reported as “+++ (“+++” means <3 uM)”.
For `Cc1cccc(C)c1Cn1nc(-c2ccc3c(c2)OCOC3)cc1C(=O)NS(=O)(=O)c1ccccc1` [Compound 1621, N-(benzenesulfonyl)-5-(4H-1,3-benzodioxin-7-yl)-2-[(2,6-dimethylphenyl)methyl]pyrazole-3-carboxamide], the EC30 was “+++ (“+++” means <3 uM)”.
With `COC1CCCCC1Oc1nc(-c2cc(F)cc(OCC(C)C)c2)ccc1C(=O)NS(=O)(=O)c1cccc(N)n1` (stereo not drawn) [Compound 1622, N-[(6-amino-2-pyridyl)sulfonyl]-6-(3-fluoro-5-isobutoxy-phenyl)-2-(2-methoxycyclohexoxy)pyridine-3-carboxamide] the EC30 was “+++ (“+++” means <3 uM)”.
`Cc1nc(OC(C)C)ccc1-c1ccc(C(=O)NS(=O)(=O)c2cccc(N)n2)c(N2[C@H](C)CC[C@@H]2C)n1` [Compound 1623, N-[(6-amino-2-pyridyl)sulfonyl]-2-[(2R,5S)-2,5-dimethylpyrrolidin-1-yl]-6-(6-isopropoxy-2-methyl-3-pyridyl)pyridine-3-carboxamide] was tested, and the EC30 was “+++ (“+++” means <3 uM)”.
`C[C@@H]1CN(c2nc(C3=CCN(C(=O)OC(C)(C)C)CC3)ccc2C(=O)NS(=O)(=O)c2cccc(N)n2)C(C)(C)C1` [Compound 1624, tert-butyl 4-[5-[(6-amino-2-pyridyl)sulfonylcarbamoyl]-6-[(4S)-2,2,4-trimethylpyrrolidin-1-yl]-2-pyridyl]-3,6-dihydro-2H-pyridine-1-carboxylate] was tested, and the EC30 was “+++ (“+++” means <3 uM)”.
`CC(C)COc1cc(F)cc(-c2ccc(C(=O)NS(=O)(=O)c3cccc(N)n3)c(OCCc3ccccn3)n2)c1` [Compound 1625, N-[(6-amino-2-pyridyl)sulfonyl]-6-(3-fluoro-5-isobutoxy-phenyl)-2-[2-(2-pyridyl)ethoxy]pyridine-3-carboxamide] was tested, and the EC30 was “++ (“++” means between 3 uM and 10 uM)”.
`CCO/C=C/c1cc(C(=O)NS(=O)(=O)c2cccc(N)n2)c(N2C[C@@H](C)CC2(C)C)nc1C(C)(C)C` [Compound 1626, N-[(6-amino-2-pyridyl)sulfonyl]-6-tert-butyl-5-[(E)-2-ethoxyvinyl]-2-[(4S)-2,2,4-trimethylpyrrolidin-1-yl]pyridine-3-carboxamide] was tested, and the EC30 was “+++ (“+++” means <3 uM)”.
`C[C@@H]1CN(c2nc(C3CC3)ccc2C(=O)NS(=O)(=O)c2cccc(N)n2)C(C)(C)C1` [Compound 1627, N-[(6-amino-2-pyridyl)sulfonyl]-6-cyclopropyl-2-[(4S)-2,2,4-trimethylpyrrolidin-1-yl]pyridine-3-carboxamide] was tested, and the EC30 was “+++ (“+++” means <3 uM)”.
In the case of `CC1CN(c2nc(C(C)(C)C)c(Br)cc2C(=O)NS(=O)(=O)c2cccc(N)n2)C(C)(C)C1` (stereo not drawn) [Compound 1628, N-[(6-amino-2-pyridyl)sulfonyl]-5-bromo-6-tert-butyl-2-(2,2,4-trimethylpyrrolidin-1-yl)pyridine-3-carboxamide], the EC30 is reported as “+++ (“+++” means <3 uM)”.
`CC(C)COc1cc(F)cc(-c2ccc(C(=O)NS(=O)(=O)c3cccc(N)n3)c(OC3CCCC3(C)C)n2)c1` (stereo not drawn) [Compound 1629, N-[(6-amino-2-pyridyl)sulfonyl]-2-(2,2-dimethylcyclopentoxy)-6-(3-fluoro-5-isobutoxy-phenyl)pyridine-3-carboxamide] was tested, and the EC30 was “+++ (“+++” means <3 uM)”.
For `Cc1cc(C)c(Oc2nc(C3=CCC(C(C)C)CC3)ccc2C(=O)NS(=O)(=O)c2cccc(N)n2)c(C)c1` (stereo not drawn) [Compound 1630, N-[(6-amino-2-pyridyl)sulfonyl]-6-(4-isopropylcyclohexen-1-yl)-2-(2,4,6-trimethylphenoxy)pyridine-3-carboxamide], the EC30 was “+++ (“+++” means <3 uM)”.
For `CC(=O)C1CCC(c2ccc(C(=O)NS(=O)(=O)c3cccc(N)n3)c(Oc3c(C)cc(C)cc3C)n2)CC1` (stereo not drawn) [Compound 1631, 6-(4-acetylcyclohexyl)-N-[(6-amino-2-pyridyl)sulfonyl]-2-(2,4,6-trimethylphenoxy)pyridine-3-carboxamide], the EC30 was “++ (“++” means between 3 uM and 10 uM)”.
In the case of `C[C@@H]1CN(c2nc(C3CCCOC3)ccc2C(=O)NS(=O)(=O)c2cccc(N)n2)C(C)(C)C1` (stereo partly drawn) [Compound 1632, N-[(6-amino-2-pyridyl)sulfonyl]-6-tetrahydropyran-3-yl-2-[(4S)-2,2,4-trimethylpyrrolidin-1-yl]pyridine-3-carboxamide], the EC30 is reported as “++ (“++” means between 3 uM and 10 uM)”.
For `C[C@@H]1CN(c2nc(C(C)(C)C)c(/C=C/C3CCCC3)cc2C(=O)NS(=O)(=O)c2cccc(N)n2)C(C)(C)C1` [Compound 1633, N-[(6-amino-2-pyridyl)sulfonyl]-6-tert-butyl-5-[(E)-2-cyclopentylvinyl]-2-[(4S)-2,2,4-trimethylpyrrolidin-1-yl]pyridine-3-carboxamide], the EC30 was “+++ (“+++” means <3 uM)”.
In the case of `CC(=O)N1CCC(c2ccc(C(=O)NS(=O)(=O)c3cccc(N)n3)c(N3C[C@@H](C)CC3(C)C)n2)CC1` [Compound 1634, 6-(1-acetyl-4-piperidyl)-N-[(6-amino-2-pyridyl)sulfonyl]-2-[(4S)-2,2,4-trimethylpyrrolidin-1-yl]pyridine-3-carboxamide], the EC30 is reported as “++ (“++” means between 3 uM and 10 uM)”.
With `CC1(C)CN(c2nc(C(F)(F)F)ccc2C(=O)NS(=O)(=O)c2cccc(N)n2)C(C)(C)C1` [Compound 1635, N-[(6-amino-2-pyridyl)sulfonyl]-2-(2,2,4,4-tetramethylpyrrolidin-1-yl)-6-(trifluoromethyl)pyridine-3-carboxamide] the EC30 was “+++ (“+++” means <3 uM)”.
For `C[C@@H]1CN(c2nc(-c3cc(O)cc(F)c3)ccc2C(=O)NS(=O)(=O)c2cccc(N)n2)C(C)(C)C1` [Compound 1636, N-[(6-amino-2-pyridyl)sulfonyl]-6-(3-fluoro-5-hydroxy-phenyl)-2-[(4S)-2,2,4-trimethylpyrrolidin-1-yl]pyridine-3-carboxamide], the EC30 was “++ (“++” means between 3 uM and 10 uM)”.
`Cc1cc(OC(C)C)nc(-c2ccc(C(=O)NS(=O)(=O)c3cccc(N)n3)c(N3C[C@@H](C)CC3(C)C)n2)c1` [Compound 1637, N-[(6-amino-2-pyridyl)sulfonyl]-6-(6-isopropoxy-4-methyl-2-pyridyl)-2-[(4S)-2,2,4-trimethylpyrrolidin-1-yl]pyridine-3-carboxamide] was tested, and the EC30 was “+++ (“+++” means <3 uM)”.
With `CC1(C)CN(c2ncc(C(F)(F)F)cc2C(=O)NS(=O)(=O)c2cccc(N)n2)C(C)(C)C1` [Compound 1638, N-[(6-amino-2-pyridyl)sulfonyl]-2-(2,2,4,4-tetramethylpyrrolidin-1-yl)-5-(trifluoromethyl)pyridine-3-carboxamide] the EC30 was “+++ (“+++” means <3 uM)”.
With `CCC(Oc1nc(-c2cc(F)cc(OCC(C)C)c2)ccc1C(=O)NS(=O)(=O)c1cccc(N)n1)C1CC1(C)C` (stereo not drawn) [Compound 1639, N-[(6-amino-2-pyridyl)sulfonyl]-2-[1-(2,2-dimethylcyclopropyl)propoxy]-6-(3-fluoro-5-isobutoxy-phenyl)pyridine-3-carboxamide] the EC30 was “+++ (“+++” means <3 uM)”.
With `CC(C)COc1cc(F)cc(-c2ccc(C(=O)NS(=O)(=O)C3CCOC3)c(N3C[C@@H](C)CC3(C)C)n2)c1` (stereo partly drawn) [Compound 1640, 6-(3-fluoro-5-isobutoxy-phenyl)-N-tetrahydrofuran-3-ylsulfonyl-2-[(4S)-2,2,4-trimethylpyrrolidin-1-yl]pyridine-3-carboxamide] the EC30 was “+++ (“+++” means <3 uM)”.
